Measurements: ChEMBL document CHEMBL4308841, “Synthesis, in vitro antiproliferative activity, and kinase inhibitory effects of pyrazole-containing diarylureas and diarylamides” (Eur J Med Chem, 2018)

Columns and labels:
Assay type in all cases: functional
HL-60(TB) = experiment: Growth inhibition of human HL-60(TB) cells assessed as cell growth at 10 uM incubated for 48 hrs by sulforhodamine B assay relative to control; details: HL-60, 48 h, read-out: Activity
LOX IMVI = experiment: Growth inhibition of human LOXIMVI cells assessed as cell growth at 10 uM incubated for 48 hrs by sulforhodamine B assay relative to control; details: read-out: Activity
MCF7 = experiment: Growth inhibition of human MCF7 cells assessed as cell growth at 10 uM incubated for 48 hrs by sulforhodamine B assay relative to control; details: MCF7, 48 h, read-out: Activity
RXF 393 = experiment: Growth inhibition of human RXF393 cells assessed as cell growth at 10 uM incubated for 48 hrs by sulforhodamine B assay relative to control; details: RXF 393, 48 h, read-out: Activity
SNB-19 = experiment: Growth inhibition of human SNB19 cells assessed as cell growth at 10 uM incubated for 48 hrs by sulforhodamine B assay relative to control; details: SNB-19, 48 h, read-out: Activity
OVCAR-4 = experiment: Growth inhibition of human OVCAR4 cells assessed as cell growth at 10 uM incubated for 48 hrs by sulforhodamine B assay relative to control; details: OVCAR-4, 48 h, read-out: Activity
NCI/ADR-RES = experiment: Growth inhibition of human NCI/ADR-RES cells assessed as cell growth at 10 uM incubated for 48 hrs by sulforhodamine B assay relative to control; details: read-out: Activity
RPMI-8226 = experiment: Growth inhibition of human RPMI8226 cells assessed as cell growth at 10 uM incubated for 48 hrs by sulforhodamine B assay relative to control; details: RPMI-8226, 48 h, read-out: Activity
NCI-H23 = experiment: Growth inhibition of human NCI-H23 cells assessed as cell growth at 10 uM incubated for 48 hrs by sulforhodamine B assay relative to control; details: NCI-H23, 48 h, read-out: Activity
NCI-H460 = experiment: Growth inhibition of human NCI-H460 cells assessed as cell growth at 10 uM incubated for 48 hrs by sulforhodamine B assay relative to control; details: NCI-H460, 48 h, read-out: Activity
OVCAR-3 = experiment: Growth inhibition of human OVCAR3 cells assessed as cell growth at 10 uM incubated for 48 hrs by sulforhodamine B assay relative to control; details: OVCAR-3, 48 h, read-out: Activity
M14 = experiment: Growth inhibition of human M14 cells assessed as cell growth at 10 uM incubated for 48 hrs by sulforhodamine B assay relative to control; details: M14, 48 h, read-out: Activity
UO-31 = experiment: Growth inhibition of human UO31 cells assessed as cell growth at 10 uM incubated for 48 hrs by sulforhodamine B assay relative to control; details: UO-31, 48 h, read-out: Activity
HOP-62 = experiment: Growth inhibition of human HOP62 cells assessed as cell growth at 10 uM incubated for 48 hrs by sulforhodamine B assay relative to control; details: HOP-62, 48 h, read-out: Activity
Hs-578T = experiment: Growth inhibition of human Hs578T cells assessed as cell growth at 10 uM incubated for 48 hrs by sulforhodamine B assay relative to control; details: read-out: Activity
SF-268 = experiment: Growth inhibition of human SF268 cells assessed as cell growth at 10 uM incubated for 48 hrs by sulforhodamine B assay relative to control; details: SF-268, 48 h, read-out: Activity
SN12C = experiment: Growth inhibition of human SN12C cells assessed as cell growth at 10 uM incubated for 48 hrs by sulforhodamine B assay relative to control; details: read-out: Activity
A498 = experiment: Growth inhibition of human A498 cells assessed as cell growth at 10 uM incubated for 48 hrs by sulforhodamine B assay relative to control; details: A498, 48 h, read-out: Activity
MDA-MB-231 = experiment: Growth inhibition of human MDA-MB-231 cells assessed as cell growth at 10 uM incubated for 48 hrs by sulforhodamine B assay relative to control; details: MDA-MB-231, 48 h, read-out: Activity
PC-3 = experiment: Growth inhibition of human PC3 cells assessed as cell growth at 10 uM incubated for 48 hrs by sulforhodamine B assay relative to control; details: PC-3, 48 h, read-out: Activity
SF-539 = experiment: Growth inhibition of human SF539 cells assessed as cell growth at 10 uM incubated for 48 hrs by sulforhodamine B assay relative to control; details: SF-539, 48 h, read-out: Activity
SW-620 = experiment: Growth inhibition of human SW620 cells assessed as cell growth at 10 uM incubated for 48 hrs by sulforhodamine B assay relative to control; details: SW-620, 48 h, read-out: Activity
SR = experiment: Growth inhibition of human SR cells assessed as cell growth at 10 uM incubated for 48 hrs by sulforhodamine B assay relative to control; details: read-out: Activity
KM12 = experiment: Growth inhibition of human KM12 cells assessed as cell growth at 10 uM incubated for 48 hrs by sulforhodamine B assay relative to control; details: KM12, 48 h, read-out: Activity
ACHN = experiment: Growth inhibition of human ACHN cells assessed as cell growth at 10 uM incubated for 48 hrs by sulforhodamine B assay relative to control; details: read-out: Activity
SNB-75 = experiment: Growth inhibition of human SNB75 cells assessed as cell growth at 10 uM incubated for 48 hrs by sulforhodamine B assay relative to control; details: SNB-75, 48 h, read-out: Activity
A549 = experiment: Growth inhibition of human A549/ATCC cells assessed as cell growth at 10 uM incubated for 48 hrs by sulforhodamine B assay relative to control; details: A549, 48 h, read-out: Activity
SK-MEL-28 = experiment: Growth inhibition of human SK-MEL-28 cells assessed as cell growth at 10 uM incubated for 48 hrs by sulforhodamine B assay relative to control; details: SK-MEL-28, 48 h, read-out: Activity
DU-145 = experiment: Growth inhibition of human DU145 cells assessed as cell growth at 10 uM incubated for 48 hrs by sulforhodamine B assay relative to control; details: DU-145, 48 h, read-out: Activity
786-0 = experiment: Growth inhibition of human 786-0 cells assessed as cell growth at 10 uM incubated for 48 hrs by sulforhodamine B assay relative to control; details: 786-0, 48 h, read-out: Activity
HCT-116 = experiment: Growth inhibition of human HCT116 cells assessed as cell growth at 10 uM incubated for 48 hrs by sulforhodamine B assay relative to control; details: HCT-116, 48 h, read-out: Activity
SK-OV-3 = experiment: Growth inhibition of human SKOV3 cells assessed as cell growth at 10 uM incubated for 48 hrs by sulforhodamine B assay relative to control; details: SK-OV-3, 48 h, read-out: Activity
OVCAR-8 = experiment: Growth inhibition of human OVCAR8 cells assessed as cell growth at 10 uM incubated for 48 hrs by sulforhodamine B assay relative to control; details: OVCAR-8, 48 h, read-out: Activity

Compound	growth at 10 µM (HL-60(TB))	growth at 10 µM (LOX IMVI)	growth at 10 µM (MCF7)	growth at 10 µM (RXF 393)	growth at 10 µM (SNB-19)	growth at 10 µM (OVCAR-4)	growth at 10 µM (NCI/ADR-RES)	growth at 10 µM (RPMI-8226)	growth at 10 µM (NCI-H23)	growth at 10 µM (NCI-H460)	growth at 10 µM (OVCAR-3)	growth at 10 µM (M14)	growth at 10 µM (UO-31)	growth at 10 µM (HOP-62)	growth at 10 µM (Hs-578T)	growth at 10 µM (SF-268)	growth at 10 µM (SN12C)	growth at 10 µM (A498)	growth at 10 µM (MDA-MB-231)	growth at 10 µM (PC-3)	also measured
COc1cc(Cl)cc(-c2nn(-c3cccc(NC(=O)c4cc(C(F)(F)F)cc(C(F)(F)F)c4)c3)cc2-c2ccncc2)c1	84.3%	76.1%	57.8%	67.7%	86.4%	72.1%	67.8%	43.6%	72.1%	41%	25.5%	67.3%	54.3%	103%	81.1%	89.2%	69.8%	-1.74%	56.7%	35.6%	growth at 10 µM (SF-539): 80%; growth at 10 µM (SW-620): 86.2%; growth at 10 µM (SR): 41%; growth at 10 µM (KM12): 55.5%; growth at 10 µM (ACHN): 58.2%; growth at 10 µM (SNB-75): 60.8%; growth at 10 µM (A549): 43.5%; growth at 10 µM (SK-MEL-28): 78.8%; growth at 10 µM (DU-145): 78.2%; growth at 10 µM (786-0): 80.2%; growth at 10 µM (HCT-116): 35.2%; growth at 10 µM (SK-OV-3): 83.4%; growth at 10 µM (OVCAR-8): 55.4%
O=C(Nc1cccc(-n2cc(-c3ccncc3)c(-c3cc(O)cc(Cl)c3)n2)c1)c1cc(C(F)(F)F)cc(C(F)(F)F)c1	21.4%	10.5%	23%	-10.3%	63.1%	59.6%	46.9%	32.1%	42.7%	19.9%	15.2%	24.5%	49.1%	58.3%	65.9%	69.3%	50.3%	40.3%	-34.6%	21.7%	growth at 10 µM (SF-539): 75.5%; growth at 10 µM (SW-620): 61%; growth at 10 µM (SR): 3.15%; growth at 10 µM (KM12): 21.2%; growth at 10 µM (ACHN): 37.7%; growth at 10 µM (SNB-75): 52.7%; growth at 10 µM (A549): 27.3%; growth at 10 µM (SK-MEL-28): 63.6%; growth at 10 µM (DU-145): 62.1%; growth at 10 µM (786-0): 55.1%; growth at 10 µM (HCT-116): 24.6%; growth at 10 µM (SK-OV-3): 68.8%; growth at 10 µM (OVCAR-8): 39.6%
COc1cc(Cl)cc(-c2nn(-c3cccc(NC(=O)c4ccc(Cl)c(Cl)c4)c3)cc2-c2ccncc2)c1	94.1%	72.8%	57.7%	59.2%	71.5%	58.6%	61.4%	46%	75.2%	65.2%	53.4%	68.9%	43.5%	105%	63.6%	82.4%	69.6%	-0.94%	33.9%	34%	growth at 10 µM (SF-539): 74.5%; growth at 10 µM (SW-620): 84.2%; growth at 10 µM (SR): 43.6%; growth at 10 µM (KM12): 62.3%; growth at 10 µM (ACHN): 63.9%; growth at 10 µM (SNB-75): 50.6%; growth at 10 µM (A549): 59.7%; growth at 10 µM (SK-MEL-28): 87.8%; growth at 10 µM (DU-145): 88.5%; growth at 10 µM (786-0): 74.1%; growth at 10 µM (HCT-116): 44.1%; growth at 10 µM (SK-OV-3): 80.1%; growth at 10 µM (OVCAR-8): 58.4%
COc1cc(Cl)cc(-c2nn(-c3cccc(NC(=O)c4cccc(C(F)(F)F)c4)c3)cc2-c2ccncc2)c1	67.3%	51.7%	39.4%	40.5%	82.2%	71.8%	46.6%	31.5%	55.6%	41.1%	52.3%	56.3%	37.2%	71.6%	62.2%	77.3%	65.8%	21.2%	21.4%	23.1%	growth at 10 µM (SF-539): 64.2%; growth at 10 µM (SW-620): 77%; growth at 10 µM (SR): 29.1%; growth at 10 µM (KM12): 43.7%; growth at 10 µM (ACHN): 48.1%; growth at 10 µM (SNB-75): 53.9%; growth at 10 µM (A549): 39.1%; growth at 10 µM (SK-MEL-28): 70.3%; growth at 10 µM (DU-145): 83.8%; growth at 10 µM (786-0): 66.6%; growth at 10 µM (HCT-116): 34.1%; growth at 10 µM (SK-OV-3): 81.6%; growth at 10 µM (OVCAR-8): 42%
O=C(Nc1cccc(-n2cc(-c3ccncc3)c(-c3cc(O)cc(Cl)c3)n2)c1)Nc1ccc(Cl)c(Cl)c1	-23.4%	-84.7%	2.74%	-70.3%	30.8%	10.7%	12.8%	-15.3%	-20.4%	0.21%	-47.4%	-69.2%	-41.2%	-44.2%	-6.42%	16.2%	14.9%	-2.98%	-38.1%	-1.66%	growth at 10 µM (SF-539): -29%; growth at 10 µM (SW-620): -33.8%; growth at 10 µM (SR): -21.4%; growth at 10 µM (KM12): 2.26%; growth at 10 µM (ACHN): 6.85%; growth at 10 µM (SNB-75): 4.08%; growth at 10 µM (A549): 3.96%; growth at 10 µM (SK-MEL-28): -50.9%; growth at 10 µM (DU-145): -15.1%; growth at 10 µM (786-0): -72.1%; growth at 10 µM (HCT-116): -57.3%; growth at 10 µM (SK-OV-3): 13.2%; growth at 10 µM (OVCAR-8): -14.8%
